Data published in paper PMC10246002 (bioRxiv, 2023).

Test system: human tracheobronchial epithelial cells (hTECs)
Format: cell-based
Conditions: hTEC ALI culture with IL-13, resazurin assay

Cc1ccc(-n2nc(C(C)(C)C)cc2NC(=O)Nc2ccc(OCCN3CCOCC3)c3ccccc23)cc1 [NuP-43, BIRB-796]
number of viable cells: no significant effects
